In patent US20250049740A1, “COMPOUND AND USE THEREOF IN PREPARATION OF MEDICAMENT FOR TREATING ALZHEIMER'S DISEASE” (priority 2024, published 2025):

Legend:
Type in all cases: in vivo, mouse
wild-type mice C57BL/6J [1] = assay: Y maze test, wild-type mice given OLDA / OLDA plus formula I
Experimental: (§1) 6-week-old female wild-type mice C57BL/6J were divided into a control group injected with normal saline (Ctrl), a diseased group (injected with OLDA), and a treatment group (Formula I-OLDA). The administration was carried out by intraperitoneal injection, and the diseased group (OLDA, 0.5 mg/kg to 1.5 mg/kg), the control group (injected with normal saline, the volume of which was equal to that in the diseased group), and the treatment group (0.5 mg/kg to 1.5 mg/kg of OLDA, and 0.5 mg/kg to 1.5 mg/kg of formula I, prepared into a mixed solution for administration) were all administered once a day by injection for 8 consecutive weeks. After administration, the learning and memory ability of the mice in each group was evaluated by Y maze and Morris water maze tests.

wild-type mice C57BL/6J [2] = assay: Morris water maze test, wild-type mice given OLDA / OLDA plus formula I; conditions: for number of times of crossing the original platform location: platform removed
Experimental: as §1

Aβ and p-Tau181 [3] = assay: IHC of AD-related biochemical markers in brain tissue (hippocampus), wild-type mice
Experimental: as §1
(§2) According to the standard operating procedure of mouse brain anatomy, the mice in the control group, diseased group and treatment group in Example 3 were sacrificed, and their brain tissues and colon tissues were collected respectively and cryopreserved at −80° C.
(§3) The brain tissues of the mice in the diseased group and control group in Example 4 were examined by IHC technology for AD-related biochemical markers, and examined by IHC technology for the related markers of brain neuroinflammation.
The brain tissues of the mice in the treatment group in Example 4 were examined by IHC technology for AD-related biochemical markers and compared with the diseased group.

[4] = tested on: IBA-1 and GFAP positive cells; assay: IHC of brain neuroinflammation markers, wild-type mice
Experimental: as §1, §2, §3
The brain tissues of the mice in the treatment group in Example 4 were examined by IHC technology for the related markers of brain neuroinflammation and compared with the diseased group.

colon tissue [5] = assay: HE staining of colon tissue (colonic epithelium histopathology), wild-type mice
Experimental: as §1, with “tests. According to the standard operating procedure of mouse brain anatomy, the mice in the control group, diseased group and treatment group in Example 3 were sacrificed, and their brain tissues and colon tissues were collected respectively and cryopreserved at −80° C. The colon tissues in the diseased group and control group in Example 4 were examined by HE staining technology for colonic epithelium histopathology. The colon tissues of the mice in the treatment group in Example 4 were examined by HE staining technology for colonic epithelium histopathology and compared with the diseased group.” for “tests.”

3×Tg mice (AD mice) [6] = assay: Y maze test, 3×Tg mice (AD mice) injected with formula I; conditions: 3×Tg mice injected with a composition containing formula I vs control group injected with normal saline
From the text: (§4) 3×Tg mice (AD mice) in Example 2 were directly injected with a composition containing formula I (treatment group).

3×Tg mice (AD mice) [7] = assay: Morris water maze test, 3×Tg mice (AD mice) injected with formula I; conditions: 3×Tg mice injected with a composition containing formula I vs control group injected with normal saline
From the text: as §4

Aβ and p-Tau181 [8] = assay: AD markers in hippocampus, 3×Tg mice injected with formula I; conditions: 3×Tg mice injected with a composition containing formula I vs control group injected with normal saline
From the text: as §4

[9] = tested on: IBA-1 and GFAP positive cells; assay: Brain neuroinflammation markers, 3×Tg mice injected with formula I; conditions: 3×Tg mice injected with a composition containing formula I vs control group injected with normal saline
From the text: as §4

colon tissue [10] = assay: Colon tissue histopathology, 3×Tg mice injected with formula I; conditions: 3×Tg mice injected with a composition containing formula I vs control group injected with normal saline
From the text: as §4

[11] = treatment group (OLDA and formula I, each 0.5 mg/kg to 1.5 mg/kg, mixed solution, intraperitoneal once a day, 8 weeks) vs diseased group (OLDA)
[12] = treatment group (OLDA and formula I) vs diseased group (OLDA)
[13] = OLDA 0.5 mg/kg to 1.5 mg/kg intraperitoneal once a day for 8 weeks, diseased group vs control group (normal saline)
[14] = OLDA diseased group vs control group

COc1cccc(NC(=O)/C=C/c2ccc(Cl)cc2)c1 [formula I]
spontaneous alternation rate (wild-type mice C57BL/6J [1]; [11]): significantly increased | total number of arm entries (wild-type mice C57BL/6J [1]; [11]): significantly increased | number of times of crossing the original platform location (wild-type mice C57BL/6J [2]; [12]): significantly increased | time it took to find the platform (escape latency) (wild-type mice C57BL/6J [2]; [11]): significantly reduced | area of Aβ in the hippocampus (Aβ and p-Tau181 [3]; [12]): significantly decreased | area of p-Tau181 in the hippocampus (Aβ and p-Tau181 [3]; [12]): significantly decreased | number of GFAP positive cells [4, 12]: decreased | number of IBA-1 positive cells [4, 12]: decreased | inflammatory cells in the colon tissue (colon tissue [5]; [12]): infiltrated into muscularis mucosae | number of crypts (colon tissue [5]; [12]): increased | spontaneous alternation rate (3×Tg mice (AD mice) [6]): significantly increased | total number of arm entries (3×Tg mice (AD mice) [6]): significantly increased | time it took to find the platform (escape latency) (3×Tg mice (AD mice) [7]): significantly reduced | number of times of crossing the original platform location (3×Tg mice (AD mice) [7]; platform removed): significantly reduced | area of Aβ in the hippocampus (Aβ and p-Tau181 [8]): decreased | area of p-Tau181 in the hippocampus (Aβ and p-Tau181 [8]): decreased | number of GFAP positive cells [9]: decreased | number of IBA-1 positive cells [9]: decreased | inflammatory cells in the colon tissue (colon tissue [10]): infiltrated into muscularis mucosae | number of crypts (colon tissue [10]): increased

CCCCCCCC/C=C\CCCCCCCC(=O)NCCc1ccc(O)c(O)c1 [OLDA, N-oleoyl-dopamine, reference compound]
spontaneous alternation rate (wild-type mice C57BL/6J [1]; [13]): significantly reduced | total number of arm entries (wild-type mice C57BL/6J [1]; [13]): significantly reduced | time it took to find the platform (escape latency) (wild-type mice C57BL/6J [2]; [13]): significantly prolonged | number of times of crossing the original platform location (wild-type mice C57BL/6J [2]; OLDA 0.5 mg/kg to 1.5 mg/kg intraperitoneal once a day for 8 weeks, diseased group vs control group): significantly reduced | area of Aβ in the hippocampus (Aβ and p-Tau181 [3]; [14]): significantly increased | area of p-Tau181 in the hippocampus (Aβ and p-Tau181 [3]; [14]): significantly increased | number of GFAP positive cells [4, 14]: increased | number of IBA-1 positive cells [4, 14]: increased | inflammatory cells in the colon tissue (colon tissue [5]; [14]): infiltrated into muscularis mucosa | number of crypts (colon tissue [5]; [14]): decreased
